Test results: ChEMBL document CHEMBL3885861, “Open TG-GATES”

Species on record: Rattus norvegicus
Experiment: Open TG-GATES - Regimen: Daily Repeat
Assay type: toxicity, organism-based, Sprague-Dawley
Design: regimen Daily Repeat, gender Male, age 6 weeks
Settings: in vivo, po, 3 mg/kg, […], route gavage, dose level Low; for KIDNEY_L / KIDNEY_R / KIDNEY_TOTAL: tissue Kidney; for LIVER: tissue Liver; for A/G / ALP / ALT / AST / BUN / CRE / Ca / Cl / DBIL / GLC / IP / K / LDH / Na / PL / RALB / TBIL / TC / TG / TP / gamma-GTP: tissue Plasma

Cn1cnc([N+](=O)[O-])c1Sc1ncnc2nc[nH]c12 [AZATHIOPRINE] was tested, and the Lym (tissue Blood, time 28 day) was 84.6%, the MCH (tissue Blood, time 28 day) was 19.4 pg and the MCHC (tissue Blood, time 28 day) was 34.4%. The MCV (tissue Blood, time 28 day) was 56.4 fL, the Mono (tissue Blood, time 28 day) was 1.6% and the Neu (tissue Blood, time 28 day) was 12%. It also gave a PT (tissue Blood, time 28 day) of 16.5 s, a Plat (tissue Blood, time 28 day) of 116.9 x10_4/uL and an RBC (tissue Blood, time 28 day) of 749.8 x10_4/ul. For the same compound, the Ret (tissue Blood, time 28 day) was 2.7%, the WBC (tissue Blood, time 28 day) was 116.8 x10_2/uL and the KIDNEY_L (time 7 day) was 1 g. The KIDNEY_R (time 7 day) was 1 g, the KIDNEY_TOTAL (time 7 day) was 2 g and the KIDNEY_L (time 14 day) was 1.1 g. For the same compound, the KIDNEY_R (time 14 day) was 1.1 g, the KIDNEY_TOTAL (time 14 day) was 2.2 g and the KIDNEY_L (time 28 day) was 1.3 g. It also gave a KIDNEY_R (time 28 day) of 1.3 g, a KIDNEY_TOTAL (time 28 day) of 2.5 g and an LIVER (time 7 day) of 10.6 g. The LIVER (time 14 day) was 11.4 g, the LIVER (time 28 day) was 14.1 g and the A/G (time 7 day) was 1.2. For the same compound, the ALP (time 7 day) was 1762.2 IU/L, the ALT (time 7 day) was 44.2 IU/L and the AST (time 7 day) was 71.2 IU/L. It also gave a BUN (time 7 day) of 19.8 mg/dL, a CRE (time 7 day) of 0.1 mg/dL and a Ca (time 7 day) of 10.5 mg/dL. It also gave a Cl (time 7 day) of 107.6 meq/L, a DBIL (time 7 day) of 0 mg/dL and a GLC (time 7 day) of 201 mg/dL. It also gave an IP (time 7 day) of 7 mg/dL, a K (time 7 day) of 4.1 meq/L and an LDH (time 7 day) of 232 IU/L. It also gave a Na (time 7 day) of 143.2 meq/L, a PL (time 7 day) of 151.2 mg/dL and an RALB (time 7 day) of 3.1 g/dL. The TBIL (time 7 day) was 0.006 mg/dL, the TC (time 7 day) was 74.8 mg/dL and the TG (time 7 day) was 117.4 mg/dL. For the same compound, the TP (time 7 day) was 5.7 g/dL, the gamma-GTP (time 7 day) was 1.2 IU/L and the A/G (time 14 day) was 1.1. The ALP (time 14 day) was 1472 IU/L, the ALT (time 14 day) was 34.6 IU/L and the AST (time 14 day) was 61.4 IU/L. It also gave a BUN (time 14 day) of 17.4 mg/dL, a CRE (time 14 day) of 0.2 mg/dL and a Ca (time 14 day) of 10.7 mg/dL. It also gave a Cl (time 14 day) of 108 meq/L, a DBIL (time 14 day) of 0 mg/dL and a GLC (time 14 day) of 185.4 mg/dL. It also gave an IP (time 14 day) of 6.1 mg/dL, a K (time 14 day) of 4.2 meq/L and an LDH (time 14 day) of 145 IU/L. For the same compound, the Na (time 14 day) was 143.8 meq/L, the PL (time 14 day) was 143.2 mg/dL and the RALB (time 14 day) was 3.1 g/dL. The TBIL (time 14 day) was 0.006 mg/dL, the TC (time 14 day) was 74.2 mg/dL and the TG (time 14 day) was 116.2 mg/dL. It also gave a TP (time 14 day) of 5.9 g/dL, a gamma-GTP (time 14 day) of 1 IU/L and an A/G (time 28 day) of 1.1. It also gave an ALP (time 28 day) of 1129.8 IU/L, an ALT (time 28 day) of 46.2 IU/L and an AST (time 28 day) of 71.2 IU/L. The BUN (time 28 day) was 19.2 mg/dL, the CRE (time 28 day) was 0.2 mg/dL and the Ca (time 28 day) was 10.6 mg/dL. The Cl (time 28 day) was 107.8 meq/L, the DBIL (time 28 day) was 0.002 mg/dL and the GLC (time 28 day) was 185 mg/dL. For the same compound, the IP (time 28 day) was 5.6 mg/dL, the K (time 28 day) was 3.9 meq/L and the LDH (time 28 day) was 181 IU/L. For the same compound, the Na (time 28 day) was 141.8 meq/L, the PL (time 28 day) was 156.8 mg/dL and the RALB (time 28 day) was 3.2 g/dL. It also gave a TBIL (time 28 day) of 0.01 mg/dL, a TC (time 28 day) of 79 mg/dL and a TG (time 28 day) of 110.6 mg/dL. For the same compound, the TP (time 28 day) was 6.1 g/dL and the gamma-GTP (time 28 day) was 1.2 IU/L.
